Results on 16 compounds are retold here after ChEMBL document CHEMBL5665440, “ASAP - In vitro liver microsomal stability” (2024).

Data set [1] in a line: Human liver microsomal stability of compound in microsomal protein, PBS buffer pH 7.4, NADPH, glucose-6-phosphate and glucose-6-phosphate dehydrogenase media. Aliquotes were taken at 5 time points and after stopping the reaction, supernatants were analyzed using HPLC coupled with a tandem mass spectrometer. The elimination constant, half-life, and intrinsic clearance are determined as results using linear regression analysis. It is filed as ADME, microsomes, Microsome. To be noted: for half-life / microsomal CLint: liver microsomes; for Remaining / Remaining (without cofactor): microsomes. For orientation: Microsomes from liver hold many membrane-bound enzymes, among them those of drug oxidation.

Data set [2] in a line: Mouse liver microsomal stability of compound in microsomal protein, PBS buffer pH 7.4, NADPH, glucose-6-phosphate and glucose-6-phosphate dehydrogenase media. Aliquotes were taken at 5 time points and after stopping the reaction, supernatants were analyzed using HPLC coupled with a tandem mass spectrometer. The elimination constant, half-life, and intrinsic clearance are determined as results using linear regression analysis. To be noted: for half-life / microsomal CLint: liver microsomes; for Remaining / Remaining (without cofactor): microsomes. It is filed as ADME, microsomes, Microsome.
Throughout, for Remaining (without cofactor): time not given here.
Throughout, for Remaining: time not given here.

In the case of `COCCNC(=O)[C@H](Nc1ccc2c(c1)CNC2)c1cc(Cl)cc(C2CC2)c1`, in data set [1], the half-life stood at 1.42 h, the microsomal CLint is 19.7 µL/min/mg, the Remaining is listed as 68.563% and the “Remaining (without cofactor)” value is listed as 103.817%. Besides, in data set [2], the half-life is 2.38 h, the microsomal CLint came out at 11.7 µL/min/mg, the Remaining is given as 84.686% and the “Remaining (without cofactor)” value was 107.462%.
For the compound `N#CCCNC(=O)[C@H](Nc1ccc2c(c1)CNC2)c1cc(Cl)cc(C2CC2)c1`, in data set [1], the half-life is above 2.89 h, the microsomal CLint is below 10 µL/min/mg, the Remaining worked out at 90.394% and the “Remaining (without cofactor)” value is listed as 113.364%. In addition, in data set [2], the half-life was above 2.89 h, the microsomal CLint is below 10 µL/min/mg, the Remaining amounted to 93.147% and the “Remaining (without cofactor)” value was 101.58%.
On to `CNC(=O)[C@H](Nc1ccc2c(c1)CNC2)c1cc(Cl)cc(C2CC2)c1`, for which, in data set [1], the half-life is above 2.89 h, the microsomal CLint is below 10 µL/min/mg, the Remaining is recorded as 90.859% and the “Remaining (without cofactor)” value amounted to 112.656%. Moreover, in data set [2], the half-life is above 2.89 h, the microsomal CLint was below 10 µL/min/mg, the Remaining amounted to 87.863% and the “Remaining (without cofactor)” value was found to be 93.167%.
For `CN(c1ccc2c(c1)CNC2)[C@H](C(=O)NCC(F)F)c1cc(Cl)cc(C2CC2)c1`, in data set [1], the half-life is 1.63 h, the microsomal CLint came to 17.1 µL/min/mg, the Remaining is given as 74.869% and the “Remaining (without cofactor)” value is reported as 95.997%. Moreover, in data set [2], the half-life was 2.63 h, the microsomal CLint was 10.6 µL/min/mg, the Remaining was found to be 80.041% and the “Remaining (without cofactor)” value amounted to 110.954%.
As to `O=C(Nc1ccc2c(c1)CNC2)c1cccc2[nH]c(C(F)(F)F)cc12`, in data set [1], the half-life came out at 1.97 h, the microsomal CLint came to 14.1 µL/min/mg, the Remaining turned out to be 78.018% and the “Remaining (without cofactor)” value is on record as 74.757%. Moreover, in data set [2], the half-life amounted to 2.19 h, the microsomal CLint is 12.7 µL/min/mg, the Remaining was 75.758% and the “Remaining (without cofactor)” value amounted to 108.523%.
As for `N#Cc1cccc(-c2nc3c(C(=O)Nc4ccc5c(c4)CNC5)cc(F)cc3[nH]2)c1`, in data set [1], the half-life was above 2.89 h, the microsomal CLint is below 10 µL/min/mg, the Remaining is listed as 89.52% and the “Remaining (without cofactor)” value came to 98.721%. In data set [2], the half-life came to 1.27 h, the microsomal CLint was 22 µL/min/mg, the Remaining is 68.981% and the “Remaining (without cofactor)” value worked out at 99.493%.
In the case of `O=C(Nc1cc2c(c(-c3c[nH]c(=O)c(F)c3)c1)CNC2)c1cc(F)cc2[nH]ncc12`, in data set [1], the half-life was above 2.89 h, the microsomal CLint was below 10 µL/min/mg, the Remaining stood at 95.49% and the “Remaining (without cofactor)” value is 97.444%. Moreover, in data set [2], the half-life was 0.115 h, the microsomal CLint is 243 µL/min/mg, the Remaining came out at 2.163% and the “Remaining (without cofactor)” value turned out to be 108.846%.
As to `COCc1cc(Cl)cc([C@H](Nc2ccc3c(c2)CNC3)C(=O)NCC(F)F)c1`, in data set [1], the half-life is above 2.89 h, the microsomal CLint is below 10 µL/min/mg, the Remaining was determined as 94.228% and the “Remaining (without cofactor)” value was determined as 112.017%. In addition, in data set [2], the half-life was above 2.89 h, the microsomal CLint is below 10 µL/min/mg, the Remaining is recorded as 97.4% and the “Remaining (without cofactor)” value is 108.672%.
With `CO[C@H]1C[C@H](n2ncc3c(C(=O)Nc4ccc5c(c4)CNC5)cc(Cl)cc32)C1`, in data set [1], the half-life is above 2.89 h, the microsomal CLint was below 10 µL/min/mg, the Remaining is reported as 104.617% and the “Remaining (without cofactor)” value is listed as 107.995%. For the same compound, in data set [2], the half-life is above 2.89 h, the microsomal CLint is below 10 µL/min/mg, the Remaining was 91.321% and the “Remaining (without cofactor)” value is given as 100.159%.
On to `Cn1cc2c(C(=O)Nc3ccc4c(c3)CNC4)cc(F)cc2n1`, for which, in data set [1], the half-life is above 2.89 h, the microsomal CLint is below 10 µL/min/mg, the Remaining amounted to 100.772% and the “Remaining (without cofactor)” value turned out to be 105.44%. Moreover, in data set [2], the half-life turned out to be 1.53 h, the intrinsic clearance (microsomal CLint) was 18.2 µL/min/mg, the Remaining was determined as 76.341% and the “Remaining (without cofactor)” value is given as 103.175%.
With `O=C(Nc1cc(Br)c2c(c1)CNC2)c1cc(F)cc2[nH]ncc12`, in data set [1], the half-life was 2.05 h, the microsomal CLint came out at 13.6 µL/min/mg, the Remaining is reported as 77.163% and the “Remaining (without cofactor)” value was found to be 100.794%. Besides, in data set [2], the half-life turned out to be 0.192 h, the microsomal CLint was 145 µL/min/mg, the Remaining stood at 10.289% and the “Remaining (without cofactor)” value was 104.117%.
For `O=C1Cc2c(cc(F)cc2C(=O)Nc2ccc3c(c2)CNC3)N1`, in data set [1], the half-life was above 2.89 h, the microsomal CLint is below 10 µL/min/mg, the Remaining is on record as 99% and the “Remaining (without cofactor)” value was 112.283%. In data set [2], the half-life is above 2.89 h, the microsomal CLint was below 10 µL/min/mg, the Remaining is 87.64% and the “Remaining (without cofactor)” value is on record as 93.435%.
Regarding `O=C(NCC(F)F)[C@H](Nc1ccc2c(c1)CNC2)c1cc(Cl)cc2ccoc12`, in data set [1], the half-life is above 2.89 h, the microsomal CLint is below 10 µL/min/mg, the Remaining is listed as 100.816% and the “Remaining (without cofactor)” value was determined as 103.719%. Further, in data set [2], the half-life was above 2.89 h, the microsomal CLint is below 10 µL/min/mg, the Remaining is 93.727% and the “Remaining (without cofactor)” value came out at 105.352%.
As for `COc1cc(-c2cc(NC(=O)c3cc(F)cc4[nH]ncc34)cc3c2CNC3)ccn1`, in data set [1], the half-life is above 2.89 h, the microsomal CLint is below 10 µL/min/mg, the Remaining is 90.289% and the “Remaining (without cofactor)” value was 101.002%. In addition, in data set [2], the half-life stood at 0.107 h, the microsomal CLint was 260 µL/min/mg, the Remaining came to 1.475% and the “Remaining (without cofactor)” value stood at 106.757%.
For `O=C(Nc1cc2c(c(C3=CCS(=O)(=O)CC3)c1)CNC2)c1cc(F)cc2[nH]ncc12`, in data set [1], the half-life is above 2.89 h, the intrinsic metabolic clearance (microsomal CLint) is below 10 µL/min/mg, the Remaining is on record as 98.934% and the “Remaining (without cofactor)” value is listed as 96.094%. For the same compound, in data set [2], the half-life turned out to be 0.287 h, the microsomal CLint came out at 96.9 µL/min/mg, the Remaining is given as 20.909% and the “Remaining (without cofactor)” value is listed as 113.863%.
As for `O=C(Nc1ccc2c(c1)CNC2)c1cc(Cl)cc2c1cnn2C1CCC1`, in data set [1], the half-life was above 2.89 h, the microsomal CLint was below 10 µL/min/mg, the Remaining was 93.064% and the “Remaining (without cofactor)” value was found to be 105.277%. For the same compound, in data set [2], the half-life is 2.08 h, the microsomal CLint is 13.4 µL/min/mg, the Remaining was 78.077% and the “Remaining (without cofactor)” value is reported as 96.092%.

What is called half-life is how long it takes for the measured level to halve. Read a low half-life as rapid decline. Broadly, the microsomal CLint is a measure of how fast metabolising enzymes remove a compound, apart from limits set by blood flow.
